Where only a bound is given, the exact number is not on record here.

As usually defined, the IC50 is the concentration at which inhibition is half-maximal.

Data set [1] deals with T1, Amine oxidase [flavin-containing] B (Homo sapiens, UniProt P27338).
T1 sequence (P27338 whole entry): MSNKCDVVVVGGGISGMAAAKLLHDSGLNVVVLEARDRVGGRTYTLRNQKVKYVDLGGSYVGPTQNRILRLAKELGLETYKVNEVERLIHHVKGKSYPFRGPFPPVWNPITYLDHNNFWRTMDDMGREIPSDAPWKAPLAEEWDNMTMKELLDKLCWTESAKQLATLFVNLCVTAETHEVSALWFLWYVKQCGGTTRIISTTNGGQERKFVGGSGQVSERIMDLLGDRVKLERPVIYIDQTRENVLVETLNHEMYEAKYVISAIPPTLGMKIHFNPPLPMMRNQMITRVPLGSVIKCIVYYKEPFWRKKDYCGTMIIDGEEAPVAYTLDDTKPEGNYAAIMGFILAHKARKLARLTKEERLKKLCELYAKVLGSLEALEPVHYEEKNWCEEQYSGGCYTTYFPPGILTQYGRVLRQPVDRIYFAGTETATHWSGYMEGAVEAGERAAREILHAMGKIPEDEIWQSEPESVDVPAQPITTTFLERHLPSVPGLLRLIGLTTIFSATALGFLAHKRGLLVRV
Nature of the data set: Inhibition of human recombinant MAOB at 100 uM by fluorimetric method.

The species entered for the next data set is Homo sapiens. Kind of data set: Selectivity ratio of IC50 for human recombinant MAOA to IC50 for human recombinant MAOB.
In data set [2] the target is T2, Amine oxidase [flavin-containing] A (Homo sapiens, UniProt P21397).
T2 sequence (P21397 whole entry): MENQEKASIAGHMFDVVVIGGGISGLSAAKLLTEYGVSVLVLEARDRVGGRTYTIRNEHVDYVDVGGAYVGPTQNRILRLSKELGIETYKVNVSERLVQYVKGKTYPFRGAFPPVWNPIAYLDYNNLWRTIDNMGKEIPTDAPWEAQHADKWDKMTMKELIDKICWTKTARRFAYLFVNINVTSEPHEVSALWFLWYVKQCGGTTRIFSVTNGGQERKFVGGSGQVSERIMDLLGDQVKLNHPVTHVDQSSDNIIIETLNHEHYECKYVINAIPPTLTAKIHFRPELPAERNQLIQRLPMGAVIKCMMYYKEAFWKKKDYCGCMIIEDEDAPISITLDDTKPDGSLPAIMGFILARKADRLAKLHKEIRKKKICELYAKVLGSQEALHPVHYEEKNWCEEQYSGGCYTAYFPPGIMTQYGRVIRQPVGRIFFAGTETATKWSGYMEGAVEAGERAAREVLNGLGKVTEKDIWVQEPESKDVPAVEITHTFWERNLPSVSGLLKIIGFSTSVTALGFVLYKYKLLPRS
Nature of the data set: Inhibition of human recombinant MAOA by fluorimetric method. As to conditions: for Activity: human; call rule not given here.

Data set [3] deals with T2, Amine oxidase [flavin-containing] A. Nature of the data set: Inhibition of human liver MAOA.
For data set [4], the target named is T1, Amine oxidase [flavin-containing] B. Kind of data set: Inhibition of human liver MAOB.

For `COc1c(OCC(C)=O)ccc2cc(NC(C)=O)c(=O)oc12`, in data set [1], the Activity entry is recorded as “Not Active”. Besides, the Ratio IC50 in the data set filed under Homo sapiens is less than 0.53. The IC50 in data set [2] is 5.31 µM.

Turning to `OC1CCCCC1N1CCC(c2ccccc2)CC1` (stereo unspecified), the Activity result in data set [3] and in data set [4] was “Not Active” each time.

On to `COc1c(O)ccc2c(C)cc(=O)oc12`, for which the Activity result in data set [1] is on record as “Not Active”. Moreover, the IC50 in data set [2] was determined as 80.3 µM.

Regarding `O=c1ccc2cc3c4c(oc3cc2o1)CC4`, the Activity result in data set [1] is given as “Not Active”. The Ratio IC50 in the data set listed under Homo sapiens is less than 0.58. Also, in data set [2], the IC50 is 57.9 µM.

Consider `CCOC(N)=O`, for which the Activity entry in data set [3] and in data set [4] was “Not Active” in each case.

Consider `O=C1CCCCC1Oc1ccc2ccc(=O)oc2c1` (stereo unspecified), for which the Activity result in data set [1] is on record as “Not Active”. In addition, in the data set filed under Homo sapiens, the Ratio IC50 is less than 0.43. The half-inhibitory concentration (IC50) in data set [2] was determined as 43 µM.

For the compound `COC(=O)[C@H](Cc1cnc[nH]1)NC(=O)Cc1ccc(N(CCCl)CCCl)cc1`, the Activity entry in data set [1] and in data set [4] was “Not Active” each time.

As to `Cn1cc(I)ccc1=O`, the Activity result in data set [3] is “Not Active”.

Take `O=c1oc2cc(O)ccc2c2c1CCC2`: the Activity result in data set [1] is listed as “Not Active”. In the data set listed under Homo sapiens, the Ratio IC50 was less than 0.48. The IC50 in data set [2] is 48.2 µM.

With `COc1c(O)ccc2c3c(c(=O)oc12)CCC3`, in data set [1], the Activity result was “Not Active”. In addition, the Ratio IC50 in the data set filed under Homo sapiens is less than 0.63. In data set [2], the IC50 came out at 63.5 µM.

With `N[C@@H]1C[C@H]1c1ccccc1.N[C@H]1C[C@@H]1c1ccccc1` (racemic) [TRANYLCYPROMINE], the Activity result in data set [3] and in data set [4] was “Not Active” throughout.

In the case of `CC(=O)Nc1nnc(S(N)(=O)=O)s1` [ACETAZOLAMIDE], the Activity entry in data set [3] and in data set [4] was “Not Active” throughout.

In the case of `O=C1c2ccccc2C(=O)c2c(NCCNCCO)ccc(NCCNCCO)c21` [AMETANTRONE], the Activity result in data set [3] and in data set [4] was “Not Active” each time.

With `C=CCC(C(=O)NC(N)=O)C(C)C` (stereo unspecified) [APRONAL], the Activity entry in data set [3] is “Not Active”.

`CCOC(=O)OC(C)OC(=O)[C@@H]1N2C(=O)[C@@H](NC(=O)[C@H](N)c3ccccc3)[C@H]2SC1(C)C` (stereo partly specified) [BACAMPICILLIN]: the Activity entry in data set [3] and in data set [4] was “Not Active” throughout.

As to `C[C@H](N)C(=O)N[C@@H]1[C@H]2C(=C(O)C[C@@H](O)[C@@H]2O)C(=O)O[C@]1(C)C(Cl)Cl` [BACTOBOLIN], the Activity result in data set [3] and in data set [4] was “Not Active” each time.

For the compound `O=C(O)CCCCSc1[nH]cnc2ncnc1-2` [BUTHIOPURINE], the Activity result in data set [3] is reported as “Not Active”.

Turning to `CC(=O)OCC(=O)[C@@]12N=C(C)O[C@@H]1C[C@H]1[C@@H]3CCC4=CC(=O)C=C[C@]4(C)[C@H]3[C@@H](O)C[C@@]12C` [DEFLAZACORT], the Activity result in data set [3] and in data set [4] was “Not Active” each time.

For `CCc1cc(C(N)=S)ccn1` [ETHIONAMIDE], the Activity entry in data set [1] and in data set [4] was “Not Active” throughout.

Regarding `CCC1(C)CC(=O)NC1=O` (stereo unspecified) [ETHOSUXIMIDE], in data set [1], the Activity entry is given as “Not Active”.

In the case of `O=c1[nH]c(=O)n([C@H]2C[C@H](O)[C@@H](CO)O2)cc1F` [FLOXURIDINE], the Activity result in data set [1] and in data set [4] was “Not Active” in each case.

Regarding `CC1(C)O[C@@H]2C[C@H]3[C@@H]4C[C@H](F)C5=CC(=O)C=C[C@]5(C)[C@@]4(Cl)[C@@H](Cl)C[C@]3(C)[C@]2(C(=O)CO)O1` [FLUCLORONIDE], the Activity result in data set [1] and in data set [4] was “Not Active” in each case.

Consider `NC(N)=N/N=C/c1ccc([N+](=O)[O-])o1` [FURAGUANIDINE], for which the Activity entry in data set [1] and in data set [4] was “Not Active” each time.

For the compound `O=[N+]([O-])c1ccc(/C=N/n2cnnc2)o1` [FURAZONAL], the Activity result in data set [1] and in data set [4] was “Not Active” in each case.

Regarding `CC[C@H](c1ccc(OP(=O)(O)O)cc1)[C@@H](CC)c1ccc(OP(=O)(O)O)cc1` [HEXESTROL DIPHOSPHATE], the Activity entry in data set [1] and in data set [4] was “Not Active” throughout.

For `O=[N+]([O-])O[C@@H]1CO[C@H]2[C@@H]1OC[C@@H]2O` [ISOSORBIDE MONONITRATE], the Activity entry in data set [1] and in data set [4] was “Not Active” in each case.

On to `O=NN(CCCl)C(=O)NC1CCCCC1` [LOMUSTINE], for which the Activity result in data set [1] and in data set [4] was “Not Active” in each case.

For `O=C(Cc1ccc(N(CCCl)CCCl)cc1)NC[C@H](NC(=O)Cc1ccc(N(CCCl)CCCl)cc1)C(=O)O` [LONIN 4], the Activity entry in data set [1] and in data set [4] was “Not Active” in each case.

With `Cc1cccc(C)c1NC(=O)C1CCCCN1C` (stereo unspecified) [MEPIVACAINE], the Activity entry in data set [1] and in data set [4] was “Not Active” throughout.

`CCCC(C)(COC(N)=O)COC(N)=O` [MEPROBAMATE]: the Activity entry in data set [1] and in data set [4] was “Not Active” throughout.

Consider `CC(=O)Nc1c(I)c(C(=O)N[C@H]2C(O)O[C@H](CO)[C@@H](O)[C@@H]2O)c(I)c(N(C)C(C)=O)c1I` (stereo partly specified) [METRIZAMIDE], for which the Activity result in data set [1] and in data set [4] was “Not Active” throughout.

On to `Cc1ncc([N+](=O)[O-])n1CCO` [METRONIDAZOLE], for which the Activity result in data set [1] and in data set [4] was “Not Active” throughout.

With `COc1cc2c(cc1O)N=C[C@@H]1CC[C@H](O)N1C2=O` [NEOTHRAMYCIN A], in data set [3], the Activity entry was “Not Active”.

Take `O=c1[nH]nc(-c2ccncc2)o1` [NEOVADRINE]: the Activity result in data set [3] is recorded as “Not Active”.

Take `CN(C)[C@@H]1C(O)=C(C(N)=O)C(=O)[C@@]2(O)C(O)=C3C(=O)c4c(O)cccc4[C@@](C)(O)[C@H]3[C@H](O)[C@@H]12` [OXYTETRACYCLINE]: in data set [3], the Activity result is “Not Active”.

As for `CC[C@H](C)[C@@H]1NC(=O)[C@H](Cc2ccc(O)cc2)NC(=O)[C@@H](N)CSSC[C@@H](C(=O)N2CCC[C@H]2C(=O)N[C@@H](CC(C)C)C(=O)NCC(N)=O)NC(=O)[C@H](CC(N)=O)NC(=O)[C@H](CCC(N)=O)NC1=O` [OXYTOCIN], the Activity result in data set [3] is reported as “Not Active”.

As for `CCOc1ccc(NC(C)=O)cc1.Cl` [PHENACETIN CHLORIDE], in data set [3], the Activity entry is on record as “Not Active”.

For `CN1C(CSCC(F)(F)F)Nc2cc(Cl)c(S(N)(=O)=O)cc2S1(=O)=O` (stereo unspecified) [POLYTHIAZIDE], in data set [3], the Activity result is recorded as “Not Active”.

Regarding `COc1cc(NC(C)CCCN)c2ncccc2c1` (stereo unspecified) [PRIMAQUINE], in data set [2], the Activity result is recorded as “Not Active”.

Consider `CCC1(c2ccccc2)C(=O)NCNC1=O` [PRIMIDONE], for which the Activity entry in data set [2] was “Not Active”.

With `Nc1nc(=O)c2nc(CNc3ccc(C(=O)NC(CCC(=O)NC(CCC(=O)NC(CCC(=O)O)C(=O)O)C(=O)O)C(=O)O)cc3)cnc2[nH]1` (stereo unspecified) [PTEROPTERIN], the Activity result in data set [3] is on record as “Not Active”.

With `CCCCC1=C2N=C(N)N[C@H]3CC[C@@H](C[C@@H]1C)[C@@H]23` [PTILOCAULINE], the Activity entry in data set [3] is “Not Active”.

For `CC1=C(/C=C/C(C)=C/C=C/C(C)=C/CO)C(C)(C)CCC1` [RETINOL], the Activity result in data set [2] is recorded as “Not Active”.

With `CCCCCCCCCCCCCCCC(=O)N(CCCCN(C)C)CCCCN(C)C` [SOLAPALMITINE], the Activity entry in data set [2] was “Not Active”.

Consider `Nc1ccc(S(=O)(=O)Nc2ncccn2)cc1` [SULFADIAZINE], for which the Activity entry in data set [3] is “Not Active”.

`[H]/N=C(/N)NS(=O)(=O)c1ccc(N)cc1` [SULFAGUANIDINE]: in data set [3], the Activity result was “Not Active”.

Turning to `Cc1noc(NS(=O)(=O)c2ccc(N)cc2)c1C` [SULFISOXAZOLE], the Activity entry in data set [2] is “Not Active”.

For the compound `CCCCNc1ccc(C(=O)OCCN(C)C)cc1` [TETRACAINE], the Activity entry in data set [3] and in data set [4] was “Not Active” in each case.

`Clc1sc(Cl)c(Cl)c1Cl` [TETRACHLOROTHIOPHENE]: the Activity result in data set [3] and in data set [4] was “Not Active” each time.

Regarding `OC[C@H]1O[C@@H](n2cnc3c(S)ncnc32)[C@H](O)[C@@H]1O` [THIOINOSINE], the Activity result in data set [2] was “Not Active”.

`N#CC(O[C@@H]1O[C@H](CO[C@@H]2O[C@H](CO)[C@@H](O)[C@H](O)[C@H]2O)[C@@H](O)[C@H](O)[C@H]1O)c1ccccc1` (stereo partly specified) [VITAMIN B17]: in data set [2], the Activity entry was “Not Active”.

(Values after ChEMBL document CHEMBL1152129, “Quantitative structure-activity relationship and complex network approach to monoamine oxidase A and B inhibitors” (J Med Chem, 2008).)
